# Laboratory results reported in patent US9328369B2, “Process for production of useful substance, and surfactant for use in the process” (priority 2009, dated 2016).
# System: Escherichia coli (β)
# Test: Screening of secretion efficiency, TorA expressing strain
# Type: cell-based
# Conditions: surfactant 1 wt %; 37° C., 1 hour; ELISA, anti-His-tag antibody
# Source text: A torA gene of an Escherichia coli strain W3110 was amplified by the PCR method using primers 3 and 4 (Table 4). After being treated with restriction enzymes NdeI and BamHI, a PCR fragment was bound to an NdeI restriction enzyme site and a BamHI restriction enzyme site of a pET-22b plasmid (product of Novagen). Then, the plasmid was transformed into an AG1 (DE3) Escherichia coli strain to form a TorA expressing strain (β). Localization of the expressed TorA in a periplasmic fraction was confirmed by conducting an analysis based on the method disclosed in page 121 of Vol. 353 of METHODS IN ENZYMOLOGY (2002).
# A pdxA gene of an Escherichia coli strain W3110 was amplified by the PCR method using primers 5 and 6 (Table 4). After being treated with restriction enzymes NdeI and BamHI, a PCR fragment was bound to an NdeI restriction enzyme site and a BamHI restriction enzyme site of a pET-22b plasmid (product of Novagen). Then, the plasmid was transformed into an AG1 (DE3) Escherichia coli strain to form a PdxA expressing strain (γ). Localization of the expressed PdxA in a cytoplasmic compartment was confirmed by conducting an analysis based on the method disclosed in page 121 of Vol. 353 of METHODS IN ENZYMOLOGY (2002). […]
# (4) Then, the solution was allowed to stand at 37° C. for 1 hour. […] Here, the quantification of the recombinant protein in the resulting solution was carried out by ELISA assay with use of an anti-His-tag antibody. The sample prior to the centrifugation in the process (3) was treated with ultrasonic waves (200 W, 10 minutes) and the quantification of the recombinant protein therein was similarly carried out by ELISA assay with use of an anti-His-tag antibody. The ratio of lysed bacteria was obtained with use of Escherichia coli (γ), and the secretion efficiencies of the recombinant proteins of Escherichia coli (α) and (β) were calculated by using the following formula. […]
# “Z” represents the ratio of lysed bacteria obtained with use of Escherichia coli (γ), which is determined by the following formula: Z=Z1/Z2. […]
row,Substance,Secretion efficiency (%) Escherichia coli (β) [%]
1,Cured palm oil fatty acid amidopropyl dimethyl aminoacetate betaine [A-6],85.4
2,Polyoxyethylene(3 mol)tridecyl ether sodium acetate [A-1],98.2
